Laboratory results taken from patent US20080234351A1, “Combination Methods for Preserving Visual Acuity” (priority 2005, published 2008).

Test system: patients with type 1 or type 2 diabetes mellitus and moderately severe to very severe NPDR
Test: Clinical Study MBCM(b): Phase 3, randomized, double-masked, placebo-controlled study; frequency of sustained moderate visual loss (SMVL)
Assay type: in vivo, humans
Details: 32 mg/d orally, SMVL = ≧15 letters loss in best-corrected ETDRS visual acuity for 6-month period (30 to 36 months)
Description: MBCM(b) is a Phase 3, multicenter, parallel, randomized, double-masked, placebo-controlled study. Language from the MBCM(b) protocol is included below.
Patients with type 1 or type 2 diabetes mellitus and an Early Treatment Diabetic Retinopathy Study (ETDRS) retinopathy level ≧47A and ≦53E in at least one eye will be eligible to participate in the study. Visual acuity (best-corrected) will be assessed using the ETDRS visual acuity protocol. Retinopathy will be assessed using ETDRS 7 standard field 30 degree color stereoscopic fundus photography. The photographs will be independently assessed by the University of Wisconsin Fundus Photograph Reading Center.
Seventy sites have enrolled patients over a 15-month period. Of the 685 patients enrolled, it is expected that approximately 580 patients will complete the study. […]
Patients may be included in the study only if they meet all of the following general criteria and have at least one eye that meets all of the eye-specific criteria: • [1] […] ETDRS retinopathy level ≧47A and ≦53E without previous panretinal photocoagulation as determined using ETDRS 7 standard field 30-degree color stereoscopic fundus photography. • [3] […] Best-corrected visual acuity score of 45 or more letters as measured using the ETDRS visual acuity protocol (ETDRS Study report number 1, Arch. Opthalmol., 103:1796-1806, 1985) in an eye that has level ≧47A and ≦53E retinopathy. […]

**Q.** `CN(C)C[C@@H]1CCn2cc(c3ccccc32)C2=C(C(=O)NC2=O)c2cn(c3ccccc23)CCO1` [RBX, (S)-9-((dimethylamino)methyl)-6,7,10,11-tetrahydro-9H,18H-5,21:12,17-dimethenodibenzo(e,k)pyrrolo(3,4-h)(1,4,13)oxadiazacyclohexadecine-18,20(19H)-dione] was tested. Which “% Of Patients with SMVL, Focal PC” value (patients with focal photocoagulation) did it give?
**A.** 8.6%

**Q.** What about the “% Of Patients with SMVL, No Focal PC” value (patients without focal photocoagulation) of the same molecule?
**A.** 2.7%
